Earlier results as cited in publication PMC12181400, “Leveraging viral genome sequences and machine learning models for identification of potentially selective antiviral agents” (Communications Chemistry, 2025).
Structures can show the parent of a compound that is named as a salt. Where two headings read alike, the source gives them in different places.

Experiments:
Details in all cases: cited from earlier work
[1] = tested on: cell viability (tox21-ar-mda-kb2-luc-agonist-p3)
[2] = tested on: cell viability (tox21-ar-mda-kb2-luc-antagonist-p2)
[3] = tested on: cell viability (tox21-ap1-agonist-p1)
[4] = tested on: cell viability (tox21-car-agonist-p1)
[5] = tested on: cell viability (tox21-are-bla-p1)
[6] = tested on: cell viability (tox21-car-antagonist-p1)
[7] = curve rank −9 to 9, 0 = inactive, ref NCATS Tox21 public data browser

CCN[C@H]1CN(CCCOC)S(=O)(=O)c2sc(S(N)(=O)=O)cc21 [Brinzolamide]
tox21-ar-mda-kb2-luc-agonist-p3-viability (curve rank) [1]: 0 | tox21-ar-mda-kb2-luc-antagonist-p2-viability (curve rank) [2]: 0 | tox21-ap1-agonist-p1-viability (curve rank) [3]: 0 | tox21-car-agonist-p1-viability (curve rank) [4]: 0 | tox21-are-bla-p1-viability (curve rank) [5]: 0 | tox21-car-antagonist-p1-viability (curve rank) [6]: 0

Nc1nnc(-c2cccc(Cl)c2Cl)c(N)n1 [Lamotrigine]
tox21-ar-mda-kb2-luc-agonist-p3-viability (curve rank) [1]: 0 | tox21-ar-mda-kb2-luc-antagonist-p2-viability (curve rank) [2]: 0 | tox21-ap1-agonist-p1-viability (curve rank) [3]: 0 | tox21-car-agonist-p1-viability (curve rank) [4]: -0.67 | tox21-are-bla-p1-viability (curve rank) [5]: 0 | tox21-car-antagonist-p1-viability (curve rank) [6]: 0

O=C(Oc1ccccc1C(=O)O)c1ccccc1O [Salsalate]
tox21-ar-mda-kb2-luc-agonist-p3-viability (curve rank) [1]: 0 | tox21-ar-mda-kb2-luc-antagonist-p2-viability (curve rank) [2]: 0 | tox21-ap1-agonist-p1-viability (curve rank) [3]: 0 | tox21-car-agonist-p1-viability (curve rank) [4]: 0 | tox21-are-bla-p1-viability (curve rank) [5]: 0 | tox21-car-antagonist-p1-viability (curve rank) [6]: 0

CC1(C)S[C@@H]2[C@H](NC(=O)Cc3ccccc3)C(=O)N2[C@H]1C(=O)O.CC1(C)S[C@@H]2[C@H](NC(=O)Cc3ccccc3)C(=O)N2[C@H]1C(=O)O.c1ccc(CNCCNCc2ccccc2)cc1 [Benzathine penicillin G]
tox21-ar-mda-kb2-luc-agonist-p3-viability (curve rank) [1, 7]: 0 | tox21-ar-mda-kb2-luc-antagonist-p2-viability (curve rank) [2, 7]: 0 | tox21-ap1-agonist-p1-viability (curve rank) [3, 7]: 0 | tox21-car-agonist-p1-viability (curve rank) [4, 7]: 0 | tox21-are-bla-p1-viability (curve rank) [5, 7]: 0 | tox21-car-antagonist-p1-viability (curve rank) [6, 7]: 0

COc1ccc(C2CNC(=O)C2)cc1OC1CCCC1 (stereo not drawn) [Rolipram]
tox21-ar-mda-kb2-luc-agonist-p3-viability (curve rank) [1, 7]: 0 | tox21-ar-mda-kb2-luc-antagonist-p2-viability (curve rank) [2, 7]: 0 | tox21-ap1-agonist-p1-viability (curve rank) [3, 7]: 0 | tox21-car-agonist-p1-viability (curve rank) [4, 7]: 0 | tox21-are-bla-p1-viability (curve rank) [5, 7]: 0.67 | tox21-car-antagonist-p1-viability (curve rank) [6, 7]: 0

CCC1(c2cccc(O)c2)CCCCN(C)C1 (stereo not drawn) [Meptazinol hydrochloride]
tox21-ar-mda-kb2-luc-agonist-p3-viability (curve rank) [1, 7]: 0 | tox21-ar-mda-kb2-luc-antagonist-p2-viability (curve rank) [2, 7]: 0 | tox21-ap1-agonist-p1-viability (curve rank) [3, 7]: 0 | tox21-car-agonist-p1-viability (curve rank) [4, 7]: 0 | tox21-are-bla-p1-viability (curve rank) [5, 7]: 0 | tox21-car-antagonist-p1-viability (curve rank) [6, 7]: 0

COP(=S)(OC)Oc1ccc(SC)c(C)c1 [Fenthion]
tox21-ar-mda-kb2-luc-agonist-p3-viability (curve rank) [1, 7]: 0 | tox21-ar-mda-kb2-luc-antagonist-p2-viability (curve rank) [2, 7]: 0 | tox21-ap1-agonist-p1-viability (curve rank) [3, 7]: 0 | tox21-car-agonist-p1-viability (curve rank) [4, 7]: 0 | tox21-are-bla-p1-viability (curve rank) [5, 7]: 0 | tox21-car-antagonist-p1-viability (curve rank) [6, 7]: 0

CC(=O)NCCCCCC(=O)O [Acexamic acid]
tox21-ar-mda-kb2-luc-agonist-p3-viability (curve rank) [1, 7]: 0 | tox21-ar-mda-kb2-luc-antagonist-p2-viability (curve rank) [2, 7]: 0 | tox21-ap1-agonist-p1-viability (curve rank) [3, 7]: 0 | tox21-car-agonist-p1-viability (curve rank) [4, 7]: 0 | tox21-are-bla-p1-viability (curve rank) [5, 7]: 0 | tox21-car-antagonist-p1-viability (curve rank) [6, 7]: 0

Nc1ccccc1C(=O)O [Anthranilic acid]
tox21-ar-mda-kb2-luc-agonist-p3-viability (curve rank) [1, 7]: 0 | tox21-ar-mda-kb2-luc-antagonist-p2-viability (curve rank) [2, 7]: 0 | tox21-ap1-agonist-p1-viability (curve rank) [3, 7]: 0 | tox21-car-agonist-p1-viability (curve rank) [4, 7]: 0 | tox21-are-bla-p1-viability (curve rank) [5, 7]: 0 | tox21-car-antagonist-p1-viability (curve rank) [6, 7]: 0

CC(C)(Oc1ccc(Cl)cc1)C(=O)O [Clofibric acid]
tox21-ar-mda-kb2-luc-agonist-p3-viability (curve rank) [1]: 0 | tox21-ar-mda-kb2-luc-antagonist-p2-viability (curve rank) [2]: 0 | tox21-ap1-agonist-p1-viability (curve rank) [3]: 0 | tox21-car-agonist-p1-viability (curve rank) [4]: 0 | tox21-are-bla-p1-viability (curve rank) [5]: 0 | tox21-car-antagonist-p1-viability (curve rank) [6]: 0

O=C1C(CC[S+]([O-])c2ccccc2)C(=O)N(c2ccccc2)N1c1ccccc1 (stereo not drawn) [Sulfinpyrazone]
tox21-ar-mda-kb2-luc-agonist-p3-viability (curve rank) [1]: 0 | tox21-ar-mda-kb2-luc-antagonist-p2-viability (curve rank) [2]: 0 | tox21-ap1-agonist-p1-viability (curve rank) [3]: 0 | tox21-car-agonist-p1-viability (curve rank) [4]: 0 | tox21-are-bla-p1-viability (curve rank) [5]: 0 | tox21-car-antagonist-p1-viability (curve rank) [6]: 0

O=C(NCCO[N+](=O)[O-])c1cccnc1 [Nicorandil]
tox21-ar-mda-kb2-luc-agonist-p3-viability (curve rank) [1]: 0 | tox21-ar-mda-kb2-luc-antagonist-p2-viability (curve rank) [2]: 0 | tox21-ap1-agonist-p1-viability (curve rank) [3]: 0 | tox21-car-agonist-p1-viability (curve rank) [4]: 0 | tox21-are-bla-p1-viability (curve rank) [5]: 0 | tox21-car-antagonist-p1-viability (curve rank) [6]: 0

Cc1cccc(C(=O)O)c1O [2-Hydroxy-3-methylbenzoic acid]
tox21-ar-mda-kb2-luc-agonist-p3-viability (curve rank) [1]: 0 | tox21-ar-mda-kb2-luc-antagonist-p2-viability (curve rank) [2]: 0 | tox21-ap1-agonist-p1-viability (curve rank) [3]: 0 | tox21-car-agonist-p1-viability (curve rank) [4]: 0 | tox21-are-bla-p1-viability (curve rank) [5]: 0 | tox21-car-antagonist-p1-viability (curve rank) [6]: 0

Nc1ccc(C(=O)O)cc1 [4-Aminobenzoic acid]
tox21-ar-mda-kb2-luc-agonist-p3-viability (curve rank) [1]: 0 | tox21-ar-mda-kb2-luc-antagonist-p2-viability (curve rank) [2]: 0 | tox21-ap1-agonist-p1-viability (curve rank) [3]: 0 | tox21-car-agonist-p1-viability (curve rank) [4]: 0 | tox21-are-bla-p1-viability (curve rank) [5]: 0 | tox21-car-antagonist-p1-viability (curve rank) [6]: 0

CCCCCC(N)=O [Hexanamide]
tox21-ar-mda-kb2-luc-agonist-p3-viability (curve rank) [1, 7]: 0 | tox21-ar-mda-kb2-luc-antagonist-p2-viability (curve rank) [2, 7]: 0 | tox21-ap1-agonist-p1-viability (curve rank) [3, 7]: 0 | tox21-car-agonist-p1-viability (curve rank) [4, 7]: 0 | tox21-are-bla-p1-viability (curve rank) [5, 7]: 0 | tox21-car-antagonist-p1-viability (curve rank) [6, 7]: 0

Cc1cc(O)ccc1Cl [4-Chloro-3-methylphenol]
tox21-ar-mda-kb2-luc-agonist-p3-viability (curve rank) [1, 7]: 0 | tox21-ar-mda-kb2-luc-antagonist-p2-viability (curve rank) [2, 7]: 0 | tox21-ap1-agonist-p1-viability (curve rank) [3, 7]: 0 | tox21-car-agonist-p1-viability (curve rank) [4, 7]: 0 | tox21-are-bla-p1-viability (curve rank) [5, 7]: 0 | tox21-car-antagonist-p1-viability (curve rank) [6, 7]: 0

O=C(O)c1cc(=O)c2ccccc2o1 [Chromocarb]
tox21-ar-mda-kb2-luc-agonist-p3-viability (curve rank) [1, 7]: 0 | tox21-ar-mda-kb2-luc-antagonist-p2-viability (curve rank) [2, 7]: 0 | tox21-ap1-agonist-p1-viability (curve rank) [3, 7]: 0 | tox21-car-agonist-p1-viability (curve rank) [4, 7]: 0 | tox21-are-bla-p1-viability (curve rank) [5, 7]: 0 | tox21-car-antagonist-p1-viability (curve rank) [6, 7]: 0

COc1cc(C(=O)NCCCCCC(=O)O)cc(OC)c1OC [Capobenic acid]
tox21-ar-mda-kb2-luc-agonist-p3-viability (curve rank) [1, 7]: 0 | tox21-ar-mda-kb2-luc-antagonist-p2-viability (curve rank) [2, 7]: 0 | tox21-ap1-agonist-p1-viability (curve rank) [3, 7]: 0 | tox21-car-agonist-p1-viability (curve rank) [4, 7]: 0 | tox21-are-bla-p1-viability (curve rank) [5, 7]: 0 | tox21-car-antagonist-p1-viability (curve rank) [6, 7]: 0

Cc1ncc([N+](=O)[O-])n1CC(O)CCl (stereo not drawn) [Ornidazole]
tox21-ar-mda-kb2-luc-agonist-p3-viability (curve rank) [1]: 0 | tox21-ar-mda-kb2-luc-antagonist-p2-viability (curve rank) [2]: 0 | tox21-ap1-agonist-p1-viability (curve rank) [3]: 0 | tox21-car-agonist-p1-viability (curve rank) [4]: 0 | tox21-are-bla-p1-viability (curve rank) [5]: 0 | tox21-car-antagonist-p1-viability (curve rank) [6]: 0

CSc1ccc(C(=O)c2[nH]c(=O)[nH]c2C)cc1 [Enoximone]
tox21-ar-mda-kb2-luc-agonist-p3-viability (curve rank) [1]: 0 | tox21-ar-mda-kb2-luc-antagonist-p2-viability (curve rank) [2]: 0 | tox21-ap1-agonist-p1-viability (curve rank) [3]: 0 | tox21-car-agonist-p1-viability (curve rank) [4]: 0 | tox21-are-bla-p1-viability (curve rank) [5]: 0 | tox21-car-antagonist-p1-viability (curve rank) [6]: 0

O=C(c1ccccc1)c1ccc2n1CCC2C(=O)O (stereo not drawn) [Ketorolac]
tox21-ar-mda-kb2-luc-agonist-p3-viability (curve rank) [1]: 0 | tox21-ar-mda-kb2-luc-antagonist-p2-viability (curve rank) [2]: 0 | tox21-ap1-agonist-p1-viability (curve rank) [3]: 0 | tox21-car-agonist-p1-viability (curve rank) [4]: 0 | tox21-are-bla-p1-viability (curve rank) [5]: 0 | tox21-car-antagonist-p1-viability (curve rank) [6]: 0

c1ccc2c(c1)CCCC2C1=NCCN1 (stereo not drawn) [Tetrahydrozoline hydrochloride]
tox21-ar-mda-kb2-luc-agonist-p3-viability (curve rank) [1]: 0 | tox21-ar-mda-kb2-luc-antagonist-p2-viability (curve rank) [2]: 0 | tox21-ap1-agonist-p1-viability (curve rank) [3]: 0 | tox21-car-agonist-p1-viability (curve rank) [4]: 0 | tox21-are-bla-p1-viability (curve rank) [5]: 0 | tox21-car-antagonist-p1-viability (curve rank) [6]: 0

COc1cc(C(=O)NCc2ccc(OCCN(C)C)cc2)cc(OC)c1OC [Trimethobenzamide hydrochloride]
tox21-ar-mda-kb2-luc-agonist-p3-viability (curve rank) [1]: 0 | tox21-ar-mda-kb2-luc-antagonist-p2-viability (curve rank) [2]: 0 | tox21-ap1-agonist-p1-viability (curve rank) [3]: 0 | tox21-car-agonist-p1-viability (curve rank) [4]: 0 | tox21-are-bla-p1-viability (curve rank) [5]: 0 | tox21-car-antagonist-p1-viability (curve rank) [6]: 0
